According to PubChem BioAssay AID1963432 (Molecular Pharmacology Branch, DTP, NCI, 2024):
pIC50: −log10 of the molar value. Values belong to the compound of their own block, whether it stands above or below them.

Test system: SYO-1 complex spheroid growth, percent test/control
Assay: Anticancer human tumor SYO-1 cell line growth inhibition [Asc];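 also: compound exposure lasted 7 days after spheroids grew 3 days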;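 as to viability, T/C: 100% = DMSO vehicle control viability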
Conditions: for pIC50: curve of first compound; for viability, T/C: stronger effect = lower value
Summary of the method: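 Tumor cells were grown as multicellular spheroids with stromal HUVEC and mesenchymal stem cells and treated singly or in combination. Concentrations fell in half-log steps from the clinical Cmax, or from 10 microM where none was known.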

pIC50 (second compound 0.0316 µM): < 5.00 | pIC50 (second compound 0.1 µM): < 5.00 | pIC50 (second compound 0.316 µM): < 5.00 | pIC50 (second compound 1 µM): < 5.00 | pIC50 (second compound 3.16 µM): < 5.00 | pIC50 (second compound 10 µM): < 5.00
SMILES: C=CC(=O)N1CCN(c2nc(=O)n(-c3c(C)ccnc3C(C)C)c3nc(-c4c(O)cccc4F)c(F)cc23)C(C)C1 (centres undefined) + Cc1c(S(C)(=O)=O)c(-c2cc(F)cc(N3CCN(c4ccc(NS(=O)(=O)c5ccc(NC(CCN6CCC(C(=O)OCCCP(=O)(O)O)CC6)CSc6ccccc6)c(S(=O)(=O)C(F)(F)F)c5)cc4)CC3)c2)c(-c2ccc(Cl)cc2)n1C(C)C
viability, T/C (second compound 0.0316 µM, first compound 0.0316 µM): 105% | viability, T/C (second compound 0.0316 µM, first compound 0.1 µM): 100% | viability, T/C (second compound 0.0316 µM, first compound 0.316 µM): 100% | viability, T/C (second compound 0.0316 µM, first compound 1 µM): 106% | viability, T/C (second compound 0.0316 µM, first compound 3.16 µM): 103% | viability, T/C (second compound 0.0316 µM, first compound 10 µM): 90.7% | viability, T/C (second compound 0.1 µM, first compound 0.0316 µM): 114% | viability, T/C (second compound 0.1 µM, first compound 0.1 µM): 103% | viability, T/C (second compound 0.1 µM, first compound 0.316 µM): 93.4% | viability, T/C (second compound 0.1 µM, first compound 1 µM): 99.9% | viability, T/C (second compound 0.1 µM, first compound 3.16 µM): 99.7% | viability, T/C (second compound 0.1 µM, first compound 10 µM): 87% | viability, T/C (second compound 0.316 µM, first compound 0.0316 µM): 98.3% | viability, T/C (second compound 0.316 µM, first compound 0.1 µM): 96.9% | viability, T/C (second compound 0.316 µM, first compound 0.316 µM): 101% | viability, T/C (second compound 0.316 µM, first compound 1 µM): 102% | viability, T/C (second compound 0.316 µM, first compound 3.16 µM): 88.3% | viability, T/C (second compound 0.316 µM, first compound 10 µM): 83.4% | viability, T/C (second compound 1 µM, first compound 0.0316 µM): 94.4% | viability, T/C (second compound 1 µM, first compound 0.1 µM): 94% | viability, T/C (second compound 1 µM, first compound 0.316 µM): 99.2% | viability, T/C (second compound 1 µM, first compound 1 µM): 100% | viability, T/C (second compound 1 µM, first compound 3.16 µM): 90.7% | viability, T/C (second compound 1 µM, first compound 10 µM): 83.6% | viability, T/C (second compound 3.16 µM, first compound 0.0316 µM): 91.5% | viability, T/C (second compound 3.16 µM, first compound 0.1 µM): 86.5% | viability, T/C (second compound 3.16 µM, first compound 0.316 µM): 93.2% | viability, T/C (second compound 3.16 µM, first compound 1 µM): 96.5% | viability, T/C (second compound 3.16 µM, first compound 3.16 µM): 87.9% | viability, T/C (second compound 3.16 µM, first compound 10 µM): 81% | viability, T/C (second compound 10 µM, first compound 0.0316 µM): 90% | viability, T/C (second compound 10 µM, first compound 0.1 µM): 81.4% | viability, T/C (second compound 10 µM, first compound 0.316 µM): 83.9% | viability, T/C (second compound 10 µM, first compound 1 µM): 79.5% | viability, T/C (second compound 10 µM, first compound 3.16 µM): 89.9% | viability, T/C (second compound 10 µM, first compound 10 µM): 76.1%

pIC50 (second compound 0.0316 µM): 6.88 | pIC50 (second compound 0.1 µM): 6.90 | pIC50 (second compound 0.316 µM): 7.04 | pIC50 (second compound 1 µM): 7.19 | pIC50 (second compound 3.16 µM): 7.35 | pIC50 (second compound 10 µM): 7.45
SMILES: CCN1C(C(=O)NC23CCC(C(=O)O)(CC2)CC3)C(c2cccc(Cl)c2F)C2(C(=O)Nc3cc(Cl)ccc32)C12CCCCC2 (centres undefined) + Cc1c(S(C)(=O)=O)c(-c2cc(F)cc(N3CCN(c4ccc(NS(=O)(=O)c5ccc(NC(CCN6CCC(C(=O)OCCCP(=O)(O)O)CC6)CSc6ccccc6)c(S(=O)(=O)C(F)(F)F)c5)cc4)CC3)c2)c(-c2ccc(Cl)cc2)n1C(C)C
viability, T/C (second compound 0.0316 µM, first compound 0.00949 µM): 97.6% | viability, T/C (second compound 0.0316 µM, first compound 0.03 µM): 88.5% | viability, T/C (second compound 0.0316 µM, first compound 0.0949 µM): 65% | viability, T/C (second compound 0.0316 µM, first compound 0.3 µM): 13.6% | viability, T/C (second compound 0.0316 µM, first compound 0.949 µM): 2.07% | viability, T/C (second compound 0.0316 µM, first compound 3 µM): 0.87% | viability, T/C (second compound 0.1 µM, first compound 0.00949 µM): 91.7% | viability, T/C (second compound 0.1 µM, first compound 0.03 µM): 80.9% | viability, T/C (second compound 0.1 µM, first compound 0.0949 µM): 64.2% | viability, T/C (second compound 0.1 µM, first compound 0.3 µM): 10.4% | viability, T/C (second compound 0.1 µM, first compound 0.949 µM): 1.25% | viability, T/C (second compound 0.1 µM, first compound 3 µM): 0.54% | viability, T/C (second compound 0.316 µM, first compound 0.00949 µM): 86.6% | viability, T/C (second compound 0.316 µM, first compound 0.03 µM): 78.7% | viability, T/C (second compound 0.316 µM, first compound 0.0949 µM): 49.5% | viability, T/C (second compound 0.316 µM, first compound 0.3 µM): 4.49% | viability, T/C (second compound 0.316 µM, first compound 0.949 µM): 0.85% | viability, T/C (second compound 0.316 µM, first compound 3 µM): 0.62% | viability, T/C (second compound 1 µM, first compound 0.00949 µM): 87.4% | viability, T/C (second compound 1 µM, first compound 0.03 µM): 77.6% | viability, T/C (second compound 1 µM, first compound 0.0949 µM): 36.4% | viability, T/C (second compound 1 µM, first compound 0.3 µM): 4.69% | viability, T/C (second compound 1 µM, first compound 0.949 µM): 0.8% | viability, T/C (second compound 1 µM, first compound 3 µM): 0.39% | viability, T/C (second compound 3.16 µM, first compound 0.00949 µM): 77.5% | viability, T/C (second compound 3.16 µM, first compound 0.03 µM): 63.4% | viability, T/C (second compound 3.16 µM, first compound 0.0949 µM): 23.8% | viability, T/C (second compound 3.16 µM, first compound 0.3 µM): 2.4% | viability, T/C (second compound 3.16 µM, first compound 0.949 µM): 0.61% | viability, T/C (second compound 3.16 µM, first compound 3 µM): 0.43% | viability, T/C (second compound 10 µM, first compound 0.00949 µM): 75.9% | viability, T/C (second compound 10 µM, first compound 0.03 µM): 56.7% | viability, T/C (second compound 10 µM, first compound 0.0949 µM): 12.4% | viability, T/C (second compound 10 µM, first compound 0.3 µM): 2.09% | viability, T/C (second compound 10 µM, first compound 0.949 µM): 0.69% | viability, T/C (second compound 10 µM, first compound 3 µM): 0.46%
